Results published in publication PMC4997609, “Wedelolactone enhances osteoblastogenesis by regulating Wnt/β-catenin signaling pathway but suppresses osteoclastogenesis by NF-κB/c-fos/NFATc1 pathway” (Scientific Reports, 2016).

Target: T1, GSK3β (Homo sapiens, UniProt P49841)
T1 construct: gene GSK3B
Test: ADP-Glo kinase assay with GSK3β, GSK3β substrate and […] ATP
Format: biochemical

T1 sequence (P49841 whole entry): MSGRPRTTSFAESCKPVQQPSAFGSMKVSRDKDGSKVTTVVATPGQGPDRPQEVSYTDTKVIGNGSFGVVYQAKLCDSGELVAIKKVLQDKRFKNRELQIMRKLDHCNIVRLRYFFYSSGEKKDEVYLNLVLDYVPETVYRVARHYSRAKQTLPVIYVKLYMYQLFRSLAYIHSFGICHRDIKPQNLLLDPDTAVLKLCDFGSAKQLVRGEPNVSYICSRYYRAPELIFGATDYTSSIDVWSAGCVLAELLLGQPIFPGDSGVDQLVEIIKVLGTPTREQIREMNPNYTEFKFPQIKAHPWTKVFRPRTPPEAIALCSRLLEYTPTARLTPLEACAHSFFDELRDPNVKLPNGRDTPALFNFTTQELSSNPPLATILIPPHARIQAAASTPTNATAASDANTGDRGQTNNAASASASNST

IC50: 21.7 µM
SMILES: COc1cc(O)c2c(c1)oc(=O)c1c3cc(O)c(O)cc3oc21 [wedelolactone]
